pIC50: −log10 of the molar value.
These compounds were tested against T1, IGF-1R Ba/F3 (Homo sapiens, UniProt P08069) (assay: Ba/F3 Cell Viability Inhibition Assay (IGF-1R Ba/F3)). Settings: Tel-TK transformed Ba/F3 cells, 48 hours, Britelite luminescence.
T1 construct: fused on or other part: TEL- (or BCR-) IGF-1R in Ba/F3: the kinase part holds the site
Format: cell-based, murine
Source text: The IC50 of a drug may be determined constructing a dose-response curve and examining the effect of different concentrations of antagonist on reversing agonist activity. IC50 values may be calculated for a given antagonist by determining the concentration needed to inhibit half of the maximum biological response of the agonist. To calculate IC50 values, a series of dose-response data (e.g., drug concentrations x1, x2, . . . , xn and growth inhibition y1, y2, . . . , yn, the values of y are in the range of 0-1) is generated. IC50 values may be determined by a computer-aided system using the formula: y=D+((A−D)/(1+10^(x-log(IC50)B) • where A is the ratio of growth inhibition between lowest drug concentration and control; B is the slope of sigmoidal curvel; and D is the ratio of growth inhibition between highest drug concentration and control.
Ba/F3 is a murine IL-3-dependent pro-B lymphoma cell line. Parental Ba/F3 cells are used to generate a panel of sublines whose proliferation and survival is rendered IL-3-independent by stable transduction with individual tyrosine kinases activated by fusion with the amino-terminal portion of TEL (amino acid 1-375) or BCR. In order to generate Ba/F3 cell lines transformed by Tel-Tyrosine Kinase (TK) fusions, parental Ba/F3 cells are infected with a retrovirus harboring each TEL-fusion kinase and subjected to puromycin selection and IL-3 withdrawal to obtain IL-3-independent, transformed Ba/F3 cells.
Each transformed Ba/F3 cells are cultured in RPMI-1640 media (Gibco Cat #11875093, Carlsbad, Calif.) supplemented with 10% FBS (Hyclone Cat #SV30014.03, Logan, Utah), 4.5 g/L glucose (Sigma #G5400, St. Louis, Mo.), 1.5 g/L sodium bicarbonate (Biowhittaker #17-613E, Walkersville, Md.) and Pen/Strep (Gibco #10378-016, Carlsbad, Calif.). Cells are splitted twice weekly.
The potency of test compounds against various Tel-TK transformed Ba/F3 lines is determined as follows. Exponentially growing BaF3 Tel-TK cells are diluted in fresh medium to 75,000 cells/mL and seeded into 384-well plates (3750 cells/well) at 50 μL/well using a μFill liquid dispenser (BioTek, Winooski, Vt., USA). Duplicate plates are run for each cell line. Test and control compounds are serially diluted with DMSO and arrayed in a polypropylene 384-well plate. […] of compound is transferred into the assay plates using a pin-transfer device, and the plates are incubated at 37° C. (5% CO2) for 48 hours. 25 μL Britelite (Perkin Elmer) is added and luminescence is quantified using Analyst GT (Molecular Devices). Custom curve-fitting software is used to produce a logistic fit of percent cell viability as a function of the logarithm of inhibitor concentration. The IC50 is interpolated as the concentration of compound needed to reduce cell viability to 50% of a DMSO control. Parental Ba/F3 cells that are maintained and cultured in presence of IL-3 (1 ng/ml in final) are diluted in fresh medium containing IL-3 (1 ng/ml in final) to 75,000 cells/mL following the same procedure as described above.

T1 sequence (P08069 999-1274 limits assumed): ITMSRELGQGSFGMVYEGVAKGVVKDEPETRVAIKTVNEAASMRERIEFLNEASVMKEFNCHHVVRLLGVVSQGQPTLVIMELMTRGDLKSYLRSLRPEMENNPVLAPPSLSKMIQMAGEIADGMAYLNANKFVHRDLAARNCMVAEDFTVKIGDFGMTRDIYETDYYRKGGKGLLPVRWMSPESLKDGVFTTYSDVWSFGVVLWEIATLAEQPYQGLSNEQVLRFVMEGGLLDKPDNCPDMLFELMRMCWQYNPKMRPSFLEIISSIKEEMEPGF

Compound	pIC50
Cc1cc(Nc2nc(Nc3cc(C)c(C4CCN([C@@H](C)C(N)=O)CC4)cc3F)ncc2Cl)n[nH]1 [Compound 163]	7.25
Cc1cc(Nc2nc(Nc3cc(C)c(C4CCN(CC5CC5(F)F)CC4)cc3F)ncc2Cl)n[nH]1 (stereo not drawn) [Compound 235, 5-chloro-N-(4-(1-((2,2-difluorocyclopropyl)methyl)piperidin-4-yl)-2-fluoro-5-methylphenyl)-N^4-(5-methyl-1H-pyrazol-3-yl)pyrimidine-2,4-diamine]	7.20
CCN1CCC(c2cc(C)c(Nc3ncc(Cl)c(Nc4cc(C)[nH]n4)n3)cc2C)CC1 [Compound 211, 5-chloro-N2-(4-(1-ethylpiperidin-4-yl)-2,5-dimethylphenyl)-N4-(5-methyl-1H-pyrazol-3-yl)pyrimidine-2,4-diamine]	8.05
Cc1cc(Nc2nc(Nc3cc(C)c(C4CCCCN4C(=O)C4(O)CC4)cc3C)ncc2Cl)n[nH]1 (stereo not drawn) [Compound 193, (2-(4-(5-chloro-4-(5-methyl-1H-pyrazol-3-ylamino)pyrimidin-2-ylamino)-2,5-dimethylphenyl)piperidin-1-yl)(1-hydroxycyclopropyl)methanone]	7.12
Cc1cc(Nc2nc(Nc3cc(C)c(C4CCN(C5CC5)CC4)cc3F)ncc2Cl)n[nH]1 [Compound 210, 5-chloro-N^2-(4-(1-cyclopropylpiperidin-4-yl)-2-fluoro-5-methylphenyl)-N^4-(5-methyl-1H-pyrazol-3-yl)pyrimidine-2,4-diamine]	7.49
Cc1cc(Nc2nc(Nc3cc(C)c(C4CCN(C5COC5)CC4)cc3F)ncc2Cl)n[nH]1 [Compound 306, 5-chloro-N2-(2-fluoro-5-methyl-4-(1-(oxetan-3-yl)piperidin-4-yl)phenyl)-N4-(5-methyl-1H-pyrazol-3-yl)pyrimidine-2,4-diamine]	7.82
Cc1cc(Nc2nc(Nc3cc(C)c(C4CCN(C(=O)[C@@H]5CCCCN5C(C)C)CC4)cc3F)ncc2Cl)n[nH]1 [Compound 125, (S)-(4-(4-(5-chloro-4-(5-methyl-1H-pyrazol-3-ylamino)pyrimidin-2-ylamino)-5-fluoro-2-methylphenyl)piperidin-1-yl)(1-isopropylpiperidin-2-yl)methanone]	7.92
Cc1cc(C2CCN(CC(N)=O)CC2)c(C)cc1Nc1ncc(Cl)c(Nc2cc(C3CC3)[nH]n2)n1 [Compound 35, 2-(4-(4-(5-chloro-4-(5-cyclopropyl-1H-pyrazol-3-ylamino)pyrimidin-2-ylamino)-2,5-dimethylphenyl)piperidin-1-yl)acetamide]	7.96
Cc1cc(Nc2nc(Nc3cc(C)c(C4CCN(C(=O)C(C)(C)N)CC4)cc3C)ncc2Cl)n[nH]1 [Compound 89, 2-amino-1-(4-(4-(5-chloro-4-(5-methyl-1H-pyrazol-3-ylamino)pyrimidin-2-ylamino)-2,5-dimethylphenyl)piperidin-1-yl)-2-methylpropan-1-one]	7.64
CNC(=O)CN1CCC(c2cc(C)c(Nc3ncc(Cl)c(Nc4cc(C5CC5)[nH]n4)n3)cc2C)CC1 [Compound 33, 2-(4-(4-(5-chloro-4-(5-cyclopropyl-1H-pyrazol-3-ylamino)pyrimidin-2-ylamino)-2,5-dimethylphenyl)piperidin-1-yl)-N-methylacetamide]	8.22
Cc1cc(Nc2nc(Nc3cc(C)c(C4CCN(C(=O)c5nc(C(C)C)no5)CC4)cc3F)ncc2Cl)n[nH]1 [Compound 265, (4-(4-(5-Chloro-4-(5-methyl-1H-pyrazol-3-ylamino)pyrimidin-2-ylamino)-5-fluoro-2-methylphenyl)piperidin-1-yl)(3-isopropyl-1,2,4-oxadiazol-5-yl)methanone]	7.04
Cc1cc(Nc2nc(Nc3cc(C)c(C4CCCNC4)cc3C)ncc2Cl)n[nH]1 (stereo not drawn) [Compound 15, 5-chloro-N2-(2,5-dimethyl-4-(piperidin-3-yl)phenyl)-N4-(5-methyl-1H-pyrazol-3-yl)pyrimidine-2,4-diamine]	7.30
Cc1cc(Nc2nc(Nc3cc(C)c(C4CCN(C(=O)CCCN5CCOCC5)CC4)cc3C)ncc2Cl)n[nH]1 [Compound 224, 1-(4-(4-(5-Chloro-4-(5-methyl-1H-pyrazol-3-ylamino)pyrimidin-2-ylamino)-2,5-dimethylphenyl)piperidin-1-yl)-4-morpholinobutan-1-one]	7.70
Cc1cc(Nc2nc(Nc3cc(C)c(C4CCN(CC(N)=O)C(C)C4)cc3F)ncc2Cl)n[nH]1 (stereo not drawn) [Compound 274, 2-(4-(4-(5-chloro-4-(5-methyl-1H-pyrazol-3-ylamino)pyrimidin-2-ylamino)-5-fluoro-2-methylphenyl)-2-methylpiperidin-1-yl)acetamide]	8.22
CNC(=O)CN1CCC(c2cc(C)c(Nc3ncc(Cl)c(Nc4cc(C)[nH]n4)n3)cc2OC)CC1 [Compound 46, 2-(4-(4-(5-chloro-4-(5-methyl-1H-pyrazol-3-ylamino)pyrimidin-2-ylamino)-2-methoxy-5-methylphenyl)piperidin-1-yl)-N-methylacetamide]	7.89
Cc1cc(Nc2nc(Nc3cc(C)c(C4CCN(C(=O)OCCN(C)C)CC4)cc3F)ncc2Cl)n[nH]1 [Compound 108, (dimethylamino)ethyl 4-(4-(5-chloro-4-(5-methyl-1H-pyrazol-3-ylamino)pyrimidin-2-ylamino)-5-fluoro-2-methylphenyl)piperidine-1-carboxylate]	7.28
Cc1cc(Nc2nc(Nc3cc(C)c(C4CCN(Cc5cncnc5)CC4)cc3C)ncc2Cl)n[nH]1 [Compound 317, 5-chloro-N2-(2,5-dimethyl-4-(1-(pyrimidin-5-ylmethyl)piperidin-4-yl)phenyl)-N4-(5-methyl-1H-pyrazol-3-yl)pyrimidine-2,4-diamine]	8.40
Cc1cc(Nc2nc(Nc3cc(C)c(C4CCN(C(=O)CN5C(C)CCCC5C)CC4)cc3C)ncc2Cl)n[nH]1 (stereo not drawn) [Compound 103, 1-(4-(4-(5-chloro-4-(5-methyl-1H-pyrazol-3-ylamino)pyrimidin-2-ylamino)-2,5-dimethylphenyl)piperidin-1-yl)-2-(2,6-dimethylpiperidin-1-yl)ethanone]	8.05
CCN1CCC(c2cc(F)c(Nc3ncc(Cl)c(Nc4cc(C)[nH]n4)n3)cc2C)CC1 [Compound 232, 5-chloro-N^2-(4-(1-ethylpiperidin-4-yl)-2-fluoro-5-methylphenyl)-N^4-(5-methyl-1H-pyrazol-3-yl)pyrimidine-2,4-diamine]	7.70
Cc1cc(Nc2nc(Nc3cc(C)c(C4CCN(C(=O)[C@@H]5CCCN5)CC4)cc3F)ncc2Cl)n[nH]1 [Compound 116, (S)-(4-(4-(5-chloro-4-(5-methyl-1H-pyrazol-3-ylamino)pyrimidin-2-ylamino)-5-fluoro-2-methylphenyl)piperidin-1-yl)(pyrrolidin-2-yl)methanone]	6.86
CNC(=O)CN1CCCCC1c1cc(C)c(Nc2ncc(Cl)c(Nc3cc(C)[nH]n3)n2)cc1C (stereo not drawn) [Compound 182, 2-(2-(4-(5-chloro-4-(5-methyl-1H-pyrazol-3-ylamino)pyrimidin-2-ylamino)-2,5-dimethylphenyl)piperidin-1-yl)-N-methylacetamide]	7.72
Cc1cc(Nc2nc(Nc3cc(C)c(C4CCN(C(C)C(=O)O)CC4)cc3F)ncc2Cl)n[nH]1 (stereo not drawn) [Compound 54, 2-(4-(4-(5-chloro-4-(5-methyl-1H-pyrazol-3-ylamino)pyrimidin-2-ylamino)-5-fluoro-2-methylphenyl)piperidin-1-yl)propanoic acid]	5.82
Cc1cc(Nc2nc(Nc3cc(C)c([C@H]4COC(=O)N4)cc3C)ncc2Cl)n[nH]1 [Compound 230, (S)-4-(4-(5-chloro-4-(5-methyl-1H-pyrazol-3-ylamino)pyrimidin-2-ylamino)-2,5-dimethylphenyl)oxazolidin-2-one]	7.40
Cc1cc(Nc2nc(Nc3cc(C)c(C4CCN(C(=O)N5CCN(C)CC5)CC4)cc3F)ncc2Cl)n[nH]1 [Compound 112, (4-(4-(5-chloro-4-(5-methyl-1H-pyrazol-3-ylamino)pyrimidin-2-ylamino)-5-fluoro-2-methylphenyl)piperidin-1-yl)(4-methylpiperazin-1-yl)methanone]	7.68

Source: patent publication US8859574B2 (IRM LLC, priority 2008, dated 2014)
